What was measured:
[1] = molecular target: Sodium- and chloride-dependent GABA transporter 2 (Mus musculus); assay: Inhibition of mouse GAT3 expressed in HEK293 cells assessed as reduction in [3H]GABA uptake preincubated for 25 mins followed by [3H]GABA addition and measured after 4 mins by microbeta liquid scintillation counting method
[2] = molecular target: Sodium- and chloride-dependent betaine transporter (Mus musculus); assay: Inhibition of mouse GAT2 expressed in HEK293 cells assessed as reduction in [3H]GABA uptake preincubated for 25 mins followed by [3H]GABA addition and measured after 10 mins by microbeta liquid scintillation counting method
[3] = system: Sodium- and chloride-dependent GABA transporter 2 (Mus musculus); assay: Inhibition of mouse GAT3 expressed in HEK293 cells assessed as remaining [3H]GABA uptake at 100 uM preincubated for 25 mins followed by [3H]GABA addition and measured after 4 mins by liquid scintillation counting method relative to control
[4] = system: Sodium- and chloride-dependent betaine transporter (Mus musculus); assay: Inhibition of mouse GAT2 expressed in HEK293 cells assessed as remaining [3H]GABA uptake at 100 uM preincubated for 25 mins followed by [3H]GABA addition and measured after 10 mins by liquid scintillation counting method relative to control
[5] = molecular target: T1, Sodium- and chloride-dependent GABA transporter 1 (Mus musculus, UniProt P31648); assay: Inhibition of mouse GAT1 expressed in HEK293 cells assessed as reduction in [3H]GABA uptake preincubated for 25 mins followed by [3H]GABA addition and measured after 4 mins by microbeta liquid scintillation counting method; format: cell-based
[6] = molecular target: T1, Sodium- and chloride-dependent GABA transporter 1; assay: Displacement of NO711 from mouse GAT1 expressed in stable HEK293 cell membranes preincubated for 10 mins followed by NO711 addition and measured after 40 mins by LC-ESI-MS/MS analysis
GABA transporter 4 = molecular target: T2, GABA transporter 4 (Mus musculus, UniProt P31650); assay: Inhibition of mouse GAT4 expressed in HEK293 cells assessed as reduction in [3H]GABA uptake preincubated for 25 mins followed by [3H]GABA addition and measured after 4 mins by microbeta liquid scintillation counting method; format: cell-based
T2 sequence (P31650 whole entry): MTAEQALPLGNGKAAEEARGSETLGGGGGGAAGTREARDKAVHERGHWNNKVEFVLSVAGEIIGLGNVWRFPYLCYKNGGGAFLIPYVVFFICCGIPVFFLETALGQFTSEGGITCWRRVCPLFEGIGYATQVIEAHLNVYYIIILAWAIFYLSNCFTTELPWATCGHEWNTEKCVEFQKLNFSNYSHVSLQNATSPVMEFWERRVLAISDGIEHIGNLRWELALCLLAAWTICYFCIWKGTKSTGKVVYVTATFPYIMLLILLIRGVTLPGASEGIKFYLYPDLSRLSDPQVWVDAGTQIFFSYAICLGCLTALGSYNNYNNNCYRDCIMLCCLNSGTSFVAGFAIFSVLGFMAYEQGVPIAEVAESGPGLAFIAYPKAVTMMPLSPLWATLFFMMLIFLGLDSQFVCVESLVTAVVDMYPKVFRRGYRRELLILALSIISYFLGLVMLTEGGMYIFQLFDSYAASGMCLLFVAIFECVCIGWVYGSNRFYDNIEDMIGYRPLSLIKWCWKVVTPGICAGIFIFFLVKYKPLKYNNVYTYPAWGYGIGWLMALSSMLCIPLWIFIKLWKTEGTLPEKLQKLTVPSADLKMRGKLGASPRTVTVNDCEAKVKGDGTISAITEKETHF

[7] = molecular target: T1, Sodium- and chloride-dependent GABA transporter 1; assay: Inhibition of mouse GAT1 expressed in HEK293 cells assessed as remaining [3H]GABA uptake at 100 uM preincubated for 25 mins followed by [3H]GABA addition and measured after 4 mins by liquid scintillation counting method relative to control; format: cell-based; conditions: read-out: Activity
[8] = molecular target: T1, Sodium- and chloride-dependent GABA transporter 1; assay: Displacement of NO711 from mouse GAT1 expressed in stable HEK293 cells assessed as remaining specific NO711 binding level preincubated at 100 uM for 10 mins followed by NO711 addition and measured after 40 mins by LC-ESI-MS/MS analysis; format: cell-based; conditions: read-out: Activity
[9] = molecular target: T3, GABA transporter 4 (Mus musculus) (UniProt P31650); assay: Inhibition of mouse GAT4 expressed in HEK293 cells assessed as remaining [3H]GABA uptake at 100 uM preincubated for 25 mins followed by [3H]GABA addition and measured after 4 mins by liquid scintillation counting method relative to control; format: cell-based
T3 sequence (whole entry): T2 sequence (P31650 whole entry)

pIC50 [1]	pIC50 [2]	activity at 100 µM [3] [%]	activity at 100 µM [4] [%]	IC50 [5] [µM]	Ki [6] [µM]	IC50 (GABA transporter 4) [µM]	activity at 100 µM [7] [%]	activity at 100 µM [8] [%]	Activity [9] [%]	SMILES
4.61	4.36									COc1ccc(C(C#CCN2CCCC(C(=O)O)C2)(c2ccc(OC)cc2)c2ccc(OC)cc2)cc1 (racemic)
		56	70	1	0.513	15.1				O=C(O)C1CCCN(C/C=C\CC(c2ccccc2)(c2ccccc2)c2ccccc2)C1 (racemic)
		72	68		26.3	49	62			COc1ccc(C(/C=C\CN2CCCC(C(=O)O)C2)c2ccc(OC)cc2)cc1 (racemic)
			65	74.1	25.7	57.5				COc1ccc(CC(/C=C\CN2CCCC(C(=O)O)C2)(c2ccc(OC)cc2)c2ccc(OC)cc2)cc1 (racemic)
		78	67				69	78	83	COc1ccc(C(/C=C\CN2CCCC(C(=O)O)C2)(c2ccc(OC)cc2)c2nccs2)cc1 (racemic)
			63	30.9	23.4	16.2				COc1ccc(C(/C=C\CCN2CCCC(C(=O)O)C2)(c2ccc(OC)cc2)c2ccc(OC)cc2)cc1 (racemic)
		57		38	41.7	63.1				COc1ccc(C(/C=C\CN2CCCC(C(=O)O)C2)(Cc2ccccc2)c2ccc(OC)cc2)cc1 (racemic)
				40.7	7.41	17.4				O=C(O)C1CCCN(CC/C=C\C(c2ccccc2)(c2ccccc2)c2ccccc2)C1 (racemic)
		49		79.4		33.1		62		COc1ccc(C(/C=C\CN2CCCC(C(=O)O)C2)(c2ccc(OC)cc2)c2ccsc2)cc1 (racemic)
				95.5	53.7	10				COc1ccc(C(/C=C\CN2CCCC(C(=O)O)C2)(c2ccc(OC)cc2)c2ccc3c(c2)OCO3)cc1 (racemic)
			52	41.7	24	61.7				COc1ccc(C(C/C=C\CN2CCCC(C(=O)O)C2)(c2ccc(OC)cc2)c2ccc(OC)cc2)cc1 (racemic)
		97	85				81	53	80	COc1ccc(C(O)(/C=C\CN2CCCC(C(=O)O)C2)c2ccc(OC)cc2)cc1 (racemic)

SMILES	pIC50 [1]	pIC50 [2]	activity at 100 µM [3] [%]	activity at 100 µM [4] [%]	IC50 [5] [µM]	Ki [6] [µM]	IC50 (GABA transporter 4) [µM]	activity at 100 µM [7] [%]	activity at 100 µM [8] [%]	Activity [9] [%]
COc1ccc(C(/C=C\CN2CCCC(C(=O)O)C2)(c2ccc(OC)cc2)c2ccc(OC)cc2)cc1 (racemic)						17.8				
